Target: T1, anoctamin-1 (hANO1, TMEM16A) (Homo sapiens, UniProt Q5XXA6)
T1 sequence (Q5XXA6 1-986): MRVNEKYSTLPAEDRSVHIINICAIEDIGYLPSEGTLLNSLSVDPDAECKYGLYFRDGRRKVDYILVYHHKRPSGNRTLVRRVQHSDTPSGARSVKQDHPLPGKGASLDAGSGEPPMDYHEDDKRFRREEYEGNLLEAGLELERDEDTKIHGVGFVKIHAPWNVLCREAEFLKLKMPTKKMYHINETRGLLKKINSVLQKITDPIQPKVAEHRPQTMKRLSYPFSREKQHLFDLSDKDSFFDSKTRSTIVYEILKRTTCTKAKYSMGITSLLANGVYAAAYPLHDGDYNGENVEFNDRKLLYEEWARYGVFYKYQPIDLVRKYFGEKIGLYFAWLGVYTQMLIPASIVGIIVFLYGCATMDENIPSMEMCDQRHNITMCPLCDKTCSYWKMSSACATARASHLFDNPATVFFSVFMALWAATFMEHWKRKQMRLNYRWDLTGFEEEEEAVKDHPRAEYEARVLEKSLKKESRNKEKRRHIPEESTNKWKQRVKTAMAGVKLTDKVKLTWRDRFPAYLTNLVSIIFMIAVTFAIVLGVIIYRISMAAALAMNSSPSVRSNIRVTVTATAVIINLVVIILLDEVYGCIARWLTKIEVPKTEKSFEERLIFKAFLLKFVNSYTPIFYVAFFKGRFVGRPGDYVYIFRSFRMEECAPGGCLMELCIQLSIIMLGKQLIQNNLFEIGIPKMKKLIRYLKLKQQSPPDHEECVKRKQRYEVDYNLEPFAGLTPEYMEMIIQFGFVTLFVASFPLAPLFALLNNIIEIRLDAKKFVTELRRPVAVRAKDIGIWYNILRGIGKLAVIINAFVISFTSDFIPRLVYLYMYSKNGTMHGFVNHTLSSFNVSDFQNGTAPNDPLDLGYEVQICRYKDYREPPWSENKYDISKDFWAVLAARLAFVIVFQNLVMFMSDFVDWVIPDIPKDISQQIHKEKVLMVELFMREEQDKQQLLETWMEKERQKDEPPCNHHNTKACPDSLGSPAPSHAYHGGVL
Test: whole-cell patch clamp, hANO1-HEK293T
Type: cell-based

With `O=c1cc(-c2ccc(O)c(O)c2)oc2cc(O)cc(O)c12` [compound 5, luteolin] the IC50 was 27.9 ± 1.61 µM.

— paper PMC7317179 (The Korean Journal of Physiology & Pharmacology : …, 2020)
